Measurements from PubChem BioAssay (NCI).
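Dose response: 5 concentrations. Exposure: 48 h. Format: 96-well plates. Endpoint: linear interpolation; highest concentration if not reached. GI50: concentration for 50% inhibition of growth. TGI marks complete inhibition of growth.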

Experiments:
Assay in all cases: NCI anticancer screen, dose series, 48 h
A498 renal = test system: A498 renal
CCRF-CEM leukemia = test system: CCRF-CEM leukemia
MCF7 breast = test system: MCF7 breast
NCI/ADR-RES ovarian = test system: NCI/ADR-RES ovarian
OVCAR-8 ovarian = test system: OVCAR-8 ovarian
RPMI-8226 leukemia = test system: RPMI-8226 leukemia
RXF 393 renal = test system: RXF 393 renal
SF-539 CNS = test system: SF-539 CNS
SK-MEL-28 melanoma = test system: SK-MEL-28 melanoma
TK-10 renal = test system: TK-10 renal

Compound	GI50 (A498 renal) [µM]	TGI (A498 renal) [µM]	GI50 (CCRF-CEM leukemia) [µM]	TGI (CCRF-CEM leukemia) [µM]	GI50 (MCF7 breast) [µM]	TGI (MCF7 breast) [µM]	GI50 (NCI/ADR-RES ovarian) [µM]	TGI (NCI/ADR-RES ovarian) [µM]	GI50 (OVCAR-8 ovarian) [µM]	TGI (OVCAR-8 ovarian) [µM]	GI50 (RPMI-8226 leukemia) [µM]	TGI (RPMI-8226 leukemia) [µM]	GI50 (RXF 393 renal) [µM]	TGI (RXF 393 renal) [µM]	GI50 (SF-539 CNS) [µM]	TGI (SF-539 CNS) [µM]	GI50 (SK-MEL-28 melanoma) [µM]	TGI (SK-MEL-28 melanoma) [µM]	GI50 (TK-10 renal) [µM]	TGI (TK-10 renal) [µM]
Cc1nc2cncc(C#Cc3cncc(C(=O)Nc4ccc(CN5CCN(C)CC5)c(C(F)(F)F)c4)c3)c2nc1C	0.0756	0.772	1.12	12.5	0.841	6.78	1.83	8.65	0.721	8.88	0.487	4.49	0.268	1.76	0.207	1.02	0.422	2.71	0.727	7
C=C(C)C(=O)OC1CC2(C)OC2CC(OC(C)=O)/C(C)=C/C2OC(=O)C(=C)C21 (centres undefined)	–	26.4	–	0.654	–	12.2	–	18.2	–	18.7	–	3.49	–	4.64	–	8.57	–	1.94	–	14.1
COc1cc2c(c(OC)c1OC)-c1ccc(NNC(=S)N(Cc3cccc(C[N+](Cc4cccc(CNC56CC7CC(CC(C7)C5)C6)c4)(Cc4cccc(CNC56CC7CC(CC(C7)C5)C6)c4)Cc4cccc(CN(C(=S)NNc5ccc6c(cc5=O)[C@@H](NC(C)=O)CCc5cc(OC)c(OC)c(OC)c5-6)C56CC7CC(CC(C7)C5)C6)c4)c3)C34CC5CC(CC(C5)C3)C4)c(=O)cc1[C@@H](NC(C)=O)CC2 (some centres undefined)	1.07	3.28	0.904	2.47	0.862	3.44	5.43	12.5	2.03	7.49	0.757	1.76	1.7	6.65	1.14	4.3	1.02	4.07	3.66	8.34
Nc1c(C(=O)c2cccc(-c3ccc[n+]([O-])c3)c2)cnn1-c1ccc(F)cc1F	> 25	> 25	> 25	> 25	> 25	> 25	> 25	> 25	> 25	> 25	> 25	> 25	> 25	> 25	> 25	> 25	> 25	> 25	> 25	> 25
c1cc(C2CCCCC2)ccc1OCCCCCCN1CCNCC1	5.06	26.5	1.51	3.39	1.63	3.32	2.36	5.14	–	–	–	–	–	–	1.78	3.25	2.96	8.76	1.78	3.24
OCc1cccc(-c2ccc3ncc(-c4nc(NC5CC5)ncc4F)n3c2)c1	0.152	0.367	0.249	2.69	0.308	1.19	0.321	1.68	0.301	> 100	0.22	0.788	0.139	0.356	0.162	0.454	0.29	0.998	0.3	> 100
NC1C2C(CC(=O)O)OCC=C3CN4CCC1(C(=O)C(=O)O)C4CC32 (centres undefined)	–	> 100	–	> 100	–	> 100	–	> 100	–	> 100	–	–	–	> 100	–	> 100	–	> 100	–	> 100
CNc1nc(C)c(-c2nc(Nc3cccc(S(N)(=O)=O)c3)ncc2F)s1	< 0.0168	< 0.0308	0.0358	> 40.9	0.0255	4.64	0.0886	9.17	0.0394	15.9	0.0958	0.273	0.0176	0.0301	0.0233	0.0664	0.0319	0.278	0.0644	1.17
O=CN1N=C(c2ccc(Nc3ccnc4cc(Cl)ccc34)cc2)CC1c1ccccc1 (centres undefined)	1.3	6.79	2.51	8.55	3.42	26.7	2.69	59.8	4.53	> 100	2.55	12.3	2.2	21.6	4.57	18.7	8.35	77.7	9.51	38.5
COc1ccc(C2=CC(c3cc(OC)c(OC)c(OC)c3)NC(=O)N2)cc1OC (centres undefined)	1.83	8.32	2.65	11	4.26	14.8	3.02	> 100	4.25	> 100	3.03	19.3	3.04	12.7	2.28	5.94	6.97	20.5	4.48	41.2
Nc1nc2c(c3ncccc13)C(c1ccc(Cl)c(Cl)c1)Cc1ncccc1-2 (centres undefined)	1.93	5.85	3.27	16.6	2.99	14.2	3.31	16.1	4.24	36.5	3.81	34	1.52	5.25	2.15	5.35	4.07	13.9	6.46	20.5
CNC(=O)c1c(NC(=O)c2cccc(C(F)(F)F)c2)sc2c1CCC(=O)C2	1.67	5.71	0.113	1.49	0.283	2.84	0.349	1.72	0.324	> 100	0.198	0.781	0.326	1.97	0.339	1.67	0.837	> 100	0.469	> 40.8
COc1cc2c(cc1OCCCOC1=C=C=C(c3ccc4c(c3)c3cc(-c5ccc(OCCCOc6cc7c(cc6OC)C(=O)N6CCC[C@H]6C=N7)cc5)ccc3n4S(=O)(=O)c3ccc(C)cc3)C=C1)N=C[C@@H]1CCCN1C2=O	3.14	9.06	0.19	> 50	1.23	11.3	> 26.1	> 50	1.54	> 17	0.665	> 14.5	1.17	2.59	1.74	6.3	1.86	4.97	1.27	5.05
COc1ccc(C(O)c2cc3c(N)c(C(=O)Nc4cccc(Cl)c4C)sc3nc2C)cc1 (centres undefined)	0.761	1.63	0.733	1.93	0.569	1.24	0.915	1.84	0.948	2.17	0.681	1.85	0.709	1.42	0.818	1.54	0.854	1.58	0.871	1.8
Cc1cc(=O)c2cc(N=Cc3ccc([N+](=O)[O-])o3)ccc2o1	–	> 100	–	> 100	–	> 100	–	> 100	–	–	–	> 100	–	–	–	> 100	–	> 100	–	> 100
C[C@]12CC/C(=N\N)C[C@@H]1CC[C@@H]1[C@@H]2CC[C@]2(C)/C(=N/N)CC[C@@H]12	> 100	> 100	> 100	> 100	> 100	> 100	> 100	> 100	> 100	> 100	> 100	> 100	> 100	> 100	> 100	> 100	–	–	> 100	> 100
O=C(Nc1ccc(Cl)cc1)c1cc2c(cc1O)[nH]c1ccccc12	2.56	7.29	4.37	> 100	2.56	10	2.87	8.93	3.25	12.9	2.71	8.45	5.14	20.6	2.34	6.04	4.41	15.5	2.54	6.56
CCCCCCCCCCCCCCCC(=O)OCC1OC(n2cnc3c(=S)nc(N)[nH]c32)C(OC(=O)CCCCCCCCCCCCCCC)C1OC(=O)CCCCCCCCCCCCCCC (centres undefined)	> 25.1	> 50	1.85	> 50	1.65	> 26.1	4.46	> 50	3.42	> 50	–	–	8.09	> 50	6.95	> 50	> 39	> 50	1.99	> 50
CC1=C(C(=O)Nc2ccc3[nH]ncc3c2)C(c2ccc(F)cc2)NC(=O)N1 (centres undefined)	> 14.6	> 25	> 25	> 25	> 25	> 25	> 25	> 25	> 25	> 25	> 25	> 25	> 14.6	> 25	> 25	> 25	> 25	> 25	> 25	> 25
O=c1[nH]cnc2c1nnn2C1OC(CO)C(O)C1O (centres undefined)	5	> 100	0.551	> 28	1.41	> 78.8	0.835	> 31.4	0.683	> 100	1.33	21.5	1.62	32.2	4.06	63.8	16.7	> 100	1.5	> 30.2
O=C1c2ccccc2-c2nccc3cc(Cl)nc1c23	6.21	32.5	1.06	–	1.3	2.72	5.16	> 72.9	–	–	0.705	3.35	–	–	4.88	24.7	2.22	15.8	4.33	> 100
C=C1C(=O)O[C@H]2[C@H]1CC/C(CNS(=O)(=O)c1ccc3ccccc3c1)=C\CC[C@@]1(C)O[C@@H]21	10.2	21.8	0.399	2.31	0.943	2.62	7.11	31.7	3.36	12.6	1.46	4.5	1.3	2.65	1.73	3.56	1.57	3.57	–	–
C[N+](C)([O-])CCCNc1c2ccccc2nc2cccc([N+](=O)[O-])c12	–	0.545	–	1.96	–	0.623	–	75.6	–	20.7	–	–	–	0.349	–	3.88	–	–	–	8.19
COc1ccc(Nc2ncccc2/C=C/C(=O)c2cc(OC)c(OC)c(OC)c2)cc1	3.19	11.7	0.5	> 100	0.695	2.09	2.23	13.7	1.56	4.22	–	–	1.49	2.82	2.04	5.15	1.37	2.66	–	–
CCCCCCCCCCCCCC[P+](CCCCCC)(CCCCCC)CCCCCC	–	1.03	–	–	0.146	1.3	0.73	> 100	0.0856	1.78	0.0158	0.0395	0.141	1.4	0.202	1.72	0.101	1.44	0.198	1.92
CC(=N\O)/C(C)=N/O.CC(=N\O)/C(C)=N/O.CC(=N\O)/C(C)=N/O.CC(=N\O)/C(C)=N/O.[Cu].[Cu]	24.4	39.1	–	–	17.3	31.2	23.9	59.2	20.3	38.3	27.1	63.7	21.5	39.3	20.8	37.2	18.8	35.4	19.1	33.2
